The nature of assay [1]: In vitro inhibition of pig liver squalene epoxidase in HepG2 cells.
The nature of assay [2]: In vitro inhibition of dog liver squalene epoxidase in HepG2 cells.

For `CCN(C/C=C/C#CC(C)(C)C)Cc1cccc(OCCN(C)S(=O)(=O)c2cccs2)c1` [Thiophene-2-sulfonic acid [2-(3-{[((E)-6,6-dimethyl-hept-2-en-4-ynyl)-ethyl-amino]-methyl}-phenoxy)-ethyl]-methyl-amide], the results for the IC50 in assay [1] and in assay [2] were 50 nM and 80 nM, respectively.

Source of the values: BindingDB's records for doi:10.1016/s0960-894x(98)00213-3 (Centre De Recherche Pierre Fabre, 1999).
